Patent US11319313B2, “Crystalline forms of deuterium-enriched pioglitazone” (Poxel SA, priority 2020, dated 2022)
Where a name gives a salt, the structure may show the parent alone. Read-outs that look alike come from different tables or passages of the source. Marks after values point to notes of the source that are not given here. Blank lines part the entries; values can stand above or below the compound they belong to.

Tests used:
[1] = Dog pharmacokinetic (PK) study, single oral administration; format: in vivo, Beagle dogs; conditions: dog, in vivo; for AUC0-24, Total Pio / AUC0-24, Total R-pio / AUC0-24, Total S-pio / Cmax, Total Pio / Cmax, Total R-pio / Cmax, Total S-pio / T1/2z, Total Pio / T1/2z, Total R-pio / T1/2z, Total S-pio / Tmax, Total Pio / Tmax, Total R-pio / Tmax, Total S-pio: po
Method: The 3 Beagle male dogs were fasted before dosing. Then all test drugs were administered by the oral route using API in a capsule. [table] Food was given no sooner than one hour after dose administration on the days of treatment. Each administration was separated by a wash-out period of at least 2 days. […] Predose (just before dosing) and then […] after dosing.

[2] = pH-dependent solubility of crystalline salts (48 h equilibration, HPLC); format: physicochemical; conditions: for Solubility: room temperature, 48 hours; for solubility at 48 h: 22 °C, thermodynamic from solid
Method: The pH-dependent solubility profiles of the crystalline DCl salt form of deuterium-enriched (R)-pioglitazone, and crystalline pioglitazone HCl were determined at room temperature (about 21° C. to about 23° C.) in the pH range of 0.3-7.6. For the crystalline HCl salt form of deuterium-enriched (R)-pioglitazone, the pH-dependent solubility profile was measured at room temperature (about 21° C. to about 23° C.) in the pH range of 0.3-3.5.
For the crystalline DCl salt form of deuterium-enriched pioglitazone, the pH-dependent solubility profile was measured at room temperature (about 21° C. to about 23° C.) in the pH range of 0.7-3.5.
Suspensions of the three crystalline forms were prepared in water or USP buffer solutions. The pH of the suspensions was adjusted through the addition of 0.1 M HCl or 0.1 M NaOH. For the preparation of suspensions with a pH of 0.5 or lower, the pH was adjusted using 1 M HCL.
The suspensions were then allowed to equilibrate at room temperature (about 21° C. to about 23° C.) for 48 hours. After equilibration the solid phases were separated from the liquid phases by centrifugation, subsequently dried and then analyzed by XRPD. The concentration of deuterium-enriched (R)-pioglitazone or pioglitazone in the liquid phases (mother liquors) was determined by HPLC (see HPLC method described in Example 5).

[3] = Solubility of crystalline DCl salt in various solvents (suspension, HPLC); format: physicochemical; conditions: 24 hours at room temperature
Excerpt: Aliquots of the mother liquor were then taken from each suspension and analyzed by HPLC to determine the concentration of deuterium-enriched (R)-pioglitazone in the different solvents. [table]

[4] = Solubility of crystalline HCl salt in various solvents (visual dissolution); format: physicochemical; conditions: 22 °C, thermodynamic from solid, ambient temperature, visual inspection
Method: […]; (ii) the resulting mixtures were then stirred at ambient temperature (about 21° C. to about 23° C.) for 5-10 minutes; (iii) the mixtures were then visually inspected to determine if the crystalline HCl salt had completely dissolved; (iv) if the crystalline HCl salt had not completely dissolved more solvent was added until complete dissolution occurred. Quantitative testing: (i) 100 mg of crystalline HCl salt was added to 4 vol. of each solvent (0.4 mL) dimethylformamide, methanol and DMSO; (ii) the resulting mixtures were then stirred at ambient temperature (about 20° C. to about 25° C.) for 5-10 minutes; (iii) the mixtures were then visually inspected to determine if the crystalline HCl salt had completely dissolved; (iv) if the crystalline HCl salt had not completely dissolved more solvent was added until complete dissolution occurred.
The solubilities were then calculated using the total quantity of crystalline HCl salt and solvent used for each solvent.

in vivo = conditions: beagle, dog, plasma, po, 10 mg/kg/day
[5] = 13-week dog toxicology study, toxicokinetics on day 91; conditions: Day 91, 10 mg/kg/day
[6] = Water, filtered mother liquor pH 1.6
[7] = pH 1.6, simulated gastric fluid

Frel vs PXL061 (relative oral bioavailability), Total Pioglitazone [1]: 1 | AUC0-24, Total Pio ([1]; 10 mg/kg): 4800 ng·h/mL | AUC0-24, Total R-pio ([1]; 10 mg/kg): 2650 ng·h/mL | AUC0-24, Total S-pio ([1]; 10 mg/kg): 2150 ng·h/mL | Cmax, Total Pio ([1]; 10 mg/kg): 1310 ng/mL | Cmax, Total R-pio ([1]; 10 mg/kg): 638 ng/mL | Cmax, Total S-pio ([1]; 10 mg/kg): 683 ng/mL | T1/2z, Total Pio ([1]; 10 mg/kg): 4.03 h | T1/2z, Total R-pio ([1]; 10 mg/kg): 2.78 h | T1/2z, Total S-pio ([1]; 10 mg/kg): 3.61 h | Tmax, Total Pio ([1]; 10 mg/kg): 1 h | Tmax, Total R-pio ([1]; 10 mg/kg): 1 h | Tmax, Total S-pio ([1]; 10 mg/kg): 1 h
SMILES: [2H]C1(Cc2ccc(OCCc3ccc(CC)cn3)cc2)SC(=O)NC1=O (racemic) [PXL061, deuterium-enriched pioglitazone]

AUC0-24, Total Pio ([1]; 5 mg/kg): 1410 ng·h/mL | AUC0-24, Total R-pio ([1]; 5 mg/kg): 203 ng·h/mL | AUC0-24, Total S-pio ([1]; 5 mg/kg): 1200 ng·h/mL | Cmax, Total Pio ([1]; 5 mg/kg): 588 ng/mL | Cmax, Total R-pio ([1]; 5 mg/kg): 54.0 ng/mL | Cmax, Total S-pio ([1]; 5 mg/kg): 538 ng/mL | T1/2z, Total Pio ([1]; 5 mg/kg): 1.73 h | T1/2z, Total R-pio ([1]; 5 mg/kg): 1.91^a h | T1/2z, Total S-pio ([1]; 5 mg/kg): 1.75 h | Tmax, Total Pio ([1]; 5 mg/kg): 2 h | Tmax, Total R-pio ([1]; 5 mg/kg): 2 h | Tmax, Total S-pio ([1]; 5 mg/kg): 2 h
SMILES: [2H][C@@]1(Cc2ccc(OCCc3ccc(CC)cn3)cc2)SC(=O)NC1=O [PXL064, deuterium-enriched (S)-pioglitazone]

AUC(0-t) (in vivo; female): 5620 ng·h/mL | AUC(0-t) (in vivo; male): 2970 ng·h/mL
SMILES: CCc1ccc(CCOc2ccc(CC3SC(=O)NC3=O)cc2)nc1 (racemic) [Pioglitazone]
AUC0-24, ss dose normalized, total pioglitazone ([5]; female dogs (F)): 562 ng·h/mL | AUC0-24, ss dose normalized, total pioglitazone ([5]; male dogs (M)): 297 ng·h/mL

Solubility (in words) [2]: practically insoluble | solubility at 48 h ([2]; pH 0.6, aqueous buffer): 2880 µg/mL | solubility at 48 h ([2]; pH 0.7, aqueous buffer): 4000 µg/mL | solubility at 48 h ([2]; pH 1.2, simulated gastric fluid): 670 µg/mL | solubility at 48 h [2, 7]: 440 µg/mL | solubility at 48 h ([2]; pH 3, aqueous buffer): 30 µg/mL | solubility at 48 h ([2]; pH 4.5, aqueous buffer): < 30 µg/mL | solubility at 48 h ([2]; pH 4.6, aqueous buffer): < 30 µg/mL | solubility at 48 h ([2]; pH 5.6, aqueous buffer): < 30 µg/mL | solubility at 48 h ([2]; pH 6.6, aqueous buffer): < 30 µg/mL | solubility at 48 h ([2]; pH 7.6, aqueous buffer): < 30 µg/mL
SMILES: CCc1ccc(CCOc2ccc(CC3SC(=O)NC3=O)cc2)nc1 (centres unmarked) [Pioglitazone HCl Salt, pioglitazone hydrochloride, reference compound]

Further lines, the compound ahead of its results:

SMILES: [2H]Cl.[2H]N1C(=O)S[C@]([2H])(Cc2ccc(OCCc3ccc(CC)cn3)cc2)C1=O [deuterium-enriched (R)-pioglitazone]
Solubility ([2]; Acetate Buffer, filtered mother liquor pH 4.4): <50 µg/mL | Solubility ([2]; Phosphate Buffer, filtered mother liquor pH 6.5): <50 µg/mL | Solubility ([2]; Phosphate Buffer, filtered mother liquor pH 7.4): <50 µg/mL | Solubility ([2]; Water, filtered mother liquor pH 0.4): 1600 µg/mL | Solubility ([2]; Water, filtered mother liquor pH 0.6): 3010 µg/mL | Solubility ([2]; Water, filtered mother liquor pH 0.8): 3300 µg/mL | Solubility ([2]; Water, filtered mother liquor pH 1.4): 4540 µg/mL | Solubility [2, 6]: 2580 µg/mL | Solubility ([2]; Water, filtered mother liquor pH 2.4): 390 µg/mL | Solubility ([2]; Water, filtered mother liquor pH 3.7): 50 µg/mL | Solubility ([2]; Water, filtered mother liquor pH 6.8): <50 µg/mL | Solubility (in words) ([2]; above pH 4): practically insoluble | Solubility ([3]; 2-propanol): 500 µg/mL | Solubility ([3]; 3-pentanone): 500 µg/mL | Solubility ([3]; Acetone): 500 µg/mL | Solubility ([3]; Chloroform): 2000 µg/mL | Solubility ([3]; DMSO): 225900 µg/mL | Solubility ([3]; Ethanol): 4400 µg/mL | Solubility ([3]; Ethyl acetate): <100 µg/mL | Solubility ([3]; Methanol): 45000 µg/mL | Solubility ([3]; N,N-dimethylformamide): 46400 µg/mL | Solubility ([3]; Tetrahydrofuran): 1800 µg/mL | Solubility ([3]; Water): 7700 µg/mL | Solubility ([3]; tert-butyl methyl ether): <100 µg/mL

SMILES: [2H][C@]1(Cc2ccc(OCCc3ccc(CC)cn3)cc2)SC(=O)NC1=O [deuterium-enriched (R)-pioglitazone]
Solubility ([4]; organic solvent or mixture, DMSO): > 50000 µg/mL | Solubility ([4]; organic solvent or mixture, Dichloromethane): 5000 to 10000 µg/mL | Solubility ([4]; organic solvent or mixture, Ethanol): 5000 to 10000 µg/mL | Solubility ([4]; organic solvent or mixture, Ethyl acetate): 5000 to 10000 µg/mL | Solubility ([4]; organic solvent or mixture, Methanol): ~50000 µg/mL | Solubility ([4]; organic solvent or mixture, N,N-dimethylformamide): ~50000 µg/mL | Solubility ([4]; organic solvent or mixture, Tetrahydrofuran): 5000 to 10000 µg/mL | Solubility ([4]; organic solvent or mixture, Toluene): 5000 to 10000 µg/mL | Solubility ([4]; Water): 5000 to 10000 µg/mL | solubility at 48 h ([2]; pH 0.5, aqueous buffer): 2330 µg/mL | solubility at 48 h ([2]; pH 0.6, aqueous buffer): 2600 µg/mL | solubility at 48 h ([2]; pH 0.7, aqueous buffer): 3270 µg/mL | solubility at 48 h ([2]; pH 0.8, aqueous buffer): 3770 µg/mL | solubility at 48 h ([2]; pH 1.4, simulated gastric fluid): 5250 µg/mL | solubility at 48 h [2, 7]: 3470 µg/mL | solubility at 48 h ([2]; pH 3, aqueous buffer): 200 µg/mL | solubility at 48 h ([2]; pH 5.7, aqueous buffer): < 50 µg/mL | Solubility (in words) ([2]; pH 4): practically insoluble

SMILES: [2H]Cl.[2H]N1C(=O)SC([2H])(Cc2ccc(OCCc3ccc(CC)cn3)cc2)C1=O (racemic) [deuterium-enriched pioglitazone]
Solubility ([2]; Water, filtered mother liquor pH 0.7): 5240 µg/mL | Solubility ([2]; Water, filtered mother liquor pH 0.9): 2490 µg/mL | Solubility ([2]; Water, filtered mother liquor pH 1.1): 1630 µg/mL | Solubility [2, 6]: 420 µg/mL | Solubility ([2]; Water, filtered mother liquor pH 3.1): <30 µg/mL | Solubility ([2]; Water, filtered mother liquor pH 4.8): <30 µg/mL | pH-dependent solubility behavior (in words) ([2]; pH range 0.7-3.5): behavior similar to that of pioglitazone HCl
